Where “and” joins values, the source holds several entries; their conditions need not be identical. Equal values may be shown once.
How the values were obtained:
in vitro = in vitro ADME; settings: for Papp at 240 min, 100 μg mL^–1: PAMPA, pH 7.4, class from PAMPA-BBB Pe, read-out: CNS-permeability prediction; for PAMPA-BBB (Pe, 10^–6 cm s^–1): porcine brain lipid, PBS/EtOH (70:30), 240 min, 25 °C
adult mice NSCs = experiment: Neurogenic studies in SGZ-derived neurospheres; assay type: cell-based, mouse; settings: 10 μM
Protocol: Adult mice NSCs were isolated from SGZ of the dentate gyrus of the hippocampus and grown as free-floating neurospheres (NS).[72],[78] The neurogenic potential of each compound was determined using fluorescence confocal microscopy by quantifying the expression of two well-known neuronal markers: human β-III-tubulin (TuJ-1 clone) and microtubule-associated protein 2 (MAP-2). TuJ-1 is expressed in immature neurons, whereas the expression of MAP-2 indicates a consolidated mature neuronal stage.[79] Given that neurogenesis involves not only the proliferation of NSC but also the migration of newly generated cells, the greatest migration distance promoted by each compound was also measured (Figure 8).
Adult male C57BL/6 mice (3 months old) were used in order to determine neurogenesis activity. […] DAPI staining was used as a nuclear marker. Fluorescent representative images were acquired with a Nikon fluorescence microscope 90i coupled to a digital camera Qi. The microscope configuration was adjusted to produce the optimum signal-to-noise ratio. […] Quantification was undertaken using the image analySIS software (Soft Imaging System Corp., Münster, Germany) and normalized to total nuclei (DAPI-stained). The intensity of immunostaining of neurites from TuJ1-labeled cells and the number of MAP-2-positive cells were estimated from nine neurospheres per condition over three independent experiments. The outgrowth of the neurosphere cells was examined under a phase-contrast microscope and the farthest distance of cell migration was calculated from the edge of the sphere. At least 10 plated neurospheres per treatment were analyzed.

[1] = system: NRF2-ARE signaling pathway; experiment: cells; assay type: cell-based; settings: for EC (2-fold induction): Arec32, 24 h, read-out: NRF2 (CD, μM), concentration required to double luciferase activity, AREc32 cells, 24 h; for NRF2 (CD, μM): concentration required to double luciferase activity, AREc32 cells, 24 h
Protocol: AREc32 cells were plated in 96-well white plates (2 × 10^4 cells/well). […]. The AREc32 cells constitutively express the plasmid pGL-8xARE that implements eight copies of the EpRE sequences, followed by the luciferase reporter gene. Therefore, NRF2 induction is related to the activation of EpRE sequences, expressing luciferase at the same extent as EpRE sequences are activated. The Luciferase Assay System (Promega E1500) was used according to the provider’s protocol, and luminescence was quantified in an Orion II microplate luminometer (Berthold, Germany). Fold induction of luciferase activity was normalized to basal conditions. Data are expressed as CD values, expressing the concentration required to double the luciferase activity. CD values were calculated from dose–response curves generated from the fold induction of control conditions versus inducer concentration and fitted by nonlinear regression and data interpolated to twofold induction concentration.[68]

hMAO-A = molecular target: T1, hMAO-A (Homo sapiens, UniProt P21397); experiment: biochemical; settings: for IC50: read-out: hMAO-A (IC50), recombinant hMAO-A, p-tyramine substrate
T1 sequence (P21397 1-527): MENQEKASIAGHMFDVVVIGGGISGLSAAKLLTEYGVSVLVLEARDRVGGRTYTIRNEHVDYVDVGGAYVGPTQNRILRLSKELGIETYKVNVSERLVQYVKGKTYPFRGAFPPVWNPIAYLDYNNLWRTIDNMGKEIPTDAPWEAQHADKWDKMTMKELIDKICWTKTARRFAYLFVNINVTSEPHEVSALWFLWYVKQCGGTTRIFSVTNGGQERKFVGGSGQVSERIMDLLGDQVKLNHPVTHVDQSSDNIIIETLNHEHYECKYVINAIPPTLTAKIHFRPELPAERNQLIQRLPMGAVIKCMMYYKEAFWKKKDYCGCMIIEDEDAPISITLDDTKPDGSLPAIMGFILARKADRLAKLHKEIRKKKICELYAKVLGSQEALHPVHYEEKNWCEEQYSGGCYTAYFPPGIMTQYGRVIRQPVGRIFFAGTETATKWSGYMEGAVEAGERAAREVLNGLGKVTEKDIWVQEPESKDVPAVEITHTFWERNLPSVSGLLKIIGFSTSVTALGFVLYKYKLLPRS
Protocol: (§1) The hMAO-A/B inhibition of all compounds was determined using the Amplex Red MAO assay kit.
(§2) Assays were performed following the general procedure previously described.[98] […] The specific fluorescence emission was calculated after subtracting the background activity, which was determined from wells containing all components except the hMAO isoforms, which were replaced with PBS.

hMAO-B = molecular target: T2, hMAO-B (Homo sapiens, UniProt P27338); experiment: biochemical; settings: for IC50: read-out: hMAO-B (IC50), recombinant hMAO-B, p-tyramine substrate; for inhibition at 50 µM: read-out: hMAO-B percentage of inhibition (in brackets)
T2 sequence (P27338 1-520): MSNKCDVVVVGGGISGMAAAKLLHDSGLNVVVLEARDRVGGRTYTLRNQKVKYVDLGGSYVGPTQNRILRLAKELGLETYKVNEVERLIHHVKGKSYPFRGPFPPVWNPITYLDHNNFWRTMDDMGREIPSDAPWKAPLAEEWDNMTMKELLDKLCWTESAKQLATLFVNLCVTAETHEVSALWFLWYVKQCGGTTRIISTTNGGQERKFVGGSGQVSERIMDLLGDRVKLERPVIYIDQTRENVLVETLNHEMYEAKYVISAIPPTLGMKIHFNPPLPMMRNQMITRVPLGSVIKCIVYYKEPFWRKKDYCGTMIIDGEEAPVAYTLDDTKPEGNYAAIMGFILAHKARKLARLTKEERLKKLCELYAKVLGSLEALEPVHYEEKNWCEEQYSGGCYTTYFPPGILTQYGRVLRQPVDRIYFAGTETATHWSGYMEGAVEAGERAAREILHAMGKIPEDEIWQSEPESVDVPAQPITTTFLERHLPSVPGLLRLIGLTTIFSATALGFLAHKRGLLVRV
Protocol: as §1, §2

QR2 = molecular target: T3, QR2 (Mesocricetus auratus, UniProt A0ABM2YAB8); experiment: biochemical; settings: for inhibition at 10 µM: read-out: QR2 percentage of inhibition (in brackets)
T3 sequence (A0ABM2YAB8 1-231): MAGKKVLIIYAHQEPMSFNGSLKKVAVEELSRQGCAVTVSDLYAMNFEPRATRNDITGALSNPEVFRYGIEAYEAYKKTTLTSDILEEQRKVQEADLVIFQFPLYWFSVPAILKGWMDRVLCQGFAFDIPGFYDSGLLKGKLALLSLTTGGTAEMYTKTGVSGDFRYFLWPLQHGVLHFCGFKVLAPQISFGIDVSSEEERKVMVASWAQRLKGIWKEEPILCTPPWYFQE
Protocol: The QR2 experiments were performed in membrane homogenates of hamster brains (https://www.eurofins.fr, catalog ref. 0088). […] First, radioligand displacement was measured at a fixed compound concentration (10 μM) in each receptor.

[2] = Oxygen radical absorbance capacity (ORAC-FL) assay; settings: trolox = 1.0
Protocol: 2,2′-Azobis-(amidinopropane) dihydrochloride (AAPH), trolox, and fluorescein (FL) were purchased from Sigma-Aldrich. The reaction was carried out in a 75 mM phosphate buffer (pH 7.4), and the final reaction mixture was 200 μL. […] Antioxidant curves (fluorescence vs time) were first normalized to the curve of the blank corresponding to the same assay, and the area under the curve (AUC) of fluorescence decay was calculated. The net AUC corresponding to a sample was calculated by subtracting the AUC corresponding to the blank. Regression equations between the net AUC and antioxidant concentration were calculated for all the samples.

[3] = system: rat primary cortical neurons; experiment: Neuroprotection against OA-induced toxicity in rat primary cortical neuronal cultures (MTT); settings: for neuroprotection against OA-induced toxicity: compound 1 μM, OA 10 nM
Experimental pKa = assay type: physicochemical
Protocol: Introduction of the propargyl group in derivatives 2 was achieved by alkylation of the NH group of the oxadiazolone ring with propargyl bromide in basic media (K2CO3) and acetone. […] However, alkylation of the 3-hydroxylated derivative 3l was carried out overnight at room temperature (rt) in order to avoid possible secondary reactions through the phenolic group (experimental pKa for NH-oxadiazolone, 7.04 ± 0.02; for phenol 8.72 ± 0.02, Supporting Information 1, Table S1 and Figure S11).

SMILES: COc1cccc(/C=C/c2n[nH]c(=O)o2)c1 [2d, 5-[(E)-2-(3-Methoxyphenyl)ethenyl]-1,3,4-oxadiazol-2(3H)-one]
- Papp at 240 min, 100 μg mL^–1 (in vitro): > 4 ×10⁻⁶ cm/s
- PAMPA-BBB (Pe, 10^–6 cm s^–1) (in vitro): 4.6 ± 0.2 10^–6 cm s^–1
- TuJ-1 and MAP-2 marked cells (adult mice NSCs): clearly increased
- cell migration distance (adult mice NSCs): extended
- EC (2-fold induction) [1]: > 60 µM
- IC50 (hMAO-A): > 50 µM
- inhibition at 50 µM (hMAO-A; read-out: hMAO-A percentage of inhibition (in brackets)): 24%
- IC50 (hMAO-B): > 50 µM
- inhibition at 50 µM (hMAO-B): 33%
- IC50 (QR2): ~10 µM
- inhibition at 10 µM (QR2): 76%
- ORAC (trolox equiv) [2]: <0.1 trolox equiv

SMILES: C#CCNC/C=C/c1ccc(O)c(OC)c1 [8n, 2-Methoxy-4-{(1E)-3-[(prop-2-yn-1-yl)amino]prop-1-en-1-yl}phenol]
- Papp at 240 min, 100 μg mL^–1 (in vitro): > 4 ×10⁻⁶ cm/s
- PAMPA-BBB (Pe, 10^–6 cm s^–1) (in vitro): 8.7 10^–6 cm s^–1 and 8.7 ± 0.6 10^–6 cm s^–1
- NRF2 (CD, μM) [1]: 22.3 ± 2.9 µM
- IC50 (hMAO-A): 30.3 ± 2.5 µM
- IC50 (hMAO-B): > 50 µM
- inhibition at 50 µM (hMAO-B): 45%
- IC50 (QR2): 0.2 ± 0.04 µM
- ORAC (trolox equiv) [2]: 2.1 ± 0.2 trolox equiv

SMILES: COc1ccc(/C=C/c2n[nH]c(=O)o2)cc1 [2e, 5-[(E)-2-(4-Methoxyphenyl)ethenyl]-1,3,4-oxadiazol-2(3H)-one]
- Papp at 240 min, 100 μg mL^–1 (in vitro): > 4 ×10⁻⁶ cm/s
- PAMPA-BBB (Pe, 10^–6 cm s^–1) (in vitro): 6.5 ± 0.5 10^–6 cm s^–1
- EC (2-fold induction) [1]: > 60 µM
- IC50 (hMAO-A): > 50 µM
- IC50 (hMAO-B): > 50 µM
- inhibition at 50 µM (hMAO-B): 42%
- IC50 (QR2): ~10 µM
- inhibition at 10 µM (QR2): 68%
- ORAC (trolox equiv) [2]: <0.1 trolox equiv

SMILES: O=c1[nH]nc(/C=C/c2ccc(O)cc2)o1 [3m, 5-[(E)-2-(4-Hydroxyphenyl)ethenyl]-1,3,4-oxadiazol-2(3H)-one]
- Papp at 240 min, 100 μg mL^–1 (in vitro): < 2 ×10⁻⁶ cm/s
- PAMPA-BBB (Pe, 10^–6 cm s^–1) (in vitro): ≤ 0.7 10^–6 cm s^–1
- IC50 (hMAO-A): 41.5 ± 3.4 µM
- IC50 (hMAO-B): 35.7 ± 3 µM
- ORAC (trolox equiv) [2]: 3.2 ± 0.1 trolox equiv
- neuroprotection against OA-induced toxicity [3]: not able to significantly reduce neuronal death

SMILES: C#CCNC(=O)/C=C/c1ccc(O)c(O)c1 [6o, (2E)-3-(3,4-Dihydroxyphenyl)-N-(prop-2-yn-1-yl)prop-2-enamide]
- Papp at 240 min, 100 μg mL^–1 (in vitro): < 2 ×10⁻⁶ cm/s
- PAMPA-BBB (Pe, 10^–6 cm s^–1) (in vitro): ≤ 0.4 10^–6 cm s^–1
- NRF2 (CD, μM) [1]: 19.2 ± 3.7 µM
- IC50 (hMAO-A): 47 ± 0.9 µM
- IC50 (hMAO-B): > 50 µM
- inhibition at 50 µM (hMAO-B): 48%
- ORAC (trolox equiv) [2]: 1.9 ± 0.1 trolox equiv
- neuroprotection against OA-induced toxicity [3]: slightly higher neuroprotection profile than resveratrol

SMILES: O=c1[nH]nc(/C=C/c2cccc([N+](=O)[O-])c2)o1 [2c, 5-[(E)-2-(3-Nitrophenyl)ethenyl]-1,3,4-oxadiazol-2(3H)-one]
- Papp at 240 min, 100 μg mL^–1 (in vitro): > 4 ×10⁻⁶ cm/s
- PAMPA-BBB (Pe, 10^–6 cm s^–1) (in vitro): 4.7 ± 0.2 10^–6 cm s^–1
- TuJ-1 and MAP-2 marked cells (adult mice NSCs): clearly increased
- cell migration distance (adult mice NSCs): extended
- NRF2 (CD, μM) [1]: 8.42 ± 0.82 µM
- IC50 (hMAO-A): > 50 µM
- IC50 (hMAO-B): 1.06 ± 0.22 µM
- IC50 (QR2): ~10 µM
- inhibition at 10 µM (QR2): 56%
- ORAC (trolox equiv) [2]: <0.1 trolox equiv

SMILES: O=c1[nH]nc(/C=C/c2cccc(O)c2)o1 [3l, 5-[(E)-2-(3-Hydroxyphenyl)ethenyl]-1,3,4-oxadiazol-2(3H)-one]
- Papp at 240 min, 100 μg mL^–1 (in vitro): < 2 ×10⁻⁶ cm/s
- PAMPA-BBB (Pe, 10^–6 cm s^–1) (in vitro): ≤ 0.5 10^–6 cm s^–1
- TuJ-1 and MAP-2 marked cells (adult mice NSCs): clearly increased
- cell migration distance (adult mice NSCs): extended
- EC (2-fold induction) [1]: > 60 µM
- IC50 (hMAO-A): > 50 µM
- IC50 (hMAO-B): > 50 µM
- ORAC (trolox equiv) [2]: 3.8 ± 0.1 trolox equiv
- pKa (Experimental pKa; experimental pKa for NH-oxadiazolone): 7.04 ± 0.02
- pKa (Experimental pKa; experimental pKa for phenol): 8.72 ± 0.02

SMILES: C#CCn1nc(/C=C/c2cccc(OC)c2)oc1=O [4d, 5-[(E)-2-(3-Methoxyphenyl)ethenyl]-3-(prop-2-yn-1-yl)-1,3,4-oxadiazol-2(3H)-one]
- Papp at 240 min, 100 μg mL^–1 (in vitro): > 4 ×10⁻⁶ cm/s
- PAMPA-BBB (Pe, 10^–6 cm s^–1) (in vitro): 7.5 ± 0.3 10^–6 cm s^–1
- TuJ-1 and MAP-2 marked cells (adult mice NSCs): clearly increased
- cell migration distance (adult mice NSCs): extended
- NRF2 (CD, μM) [1]: 7.44 ± 0.34 µM
- IC50 (hMAO-A): > 50 µM
- IC50 (hMAO-B): 0.64 ± 0.06 µM
- IC50 (QR2): 0.4 ± 0.03 µM
- ORAC (trolox equiv) [2]: 0.3 ± 0.06 trolox equiv
- viability at 1 µM ([3]; Rattus norvegicus, Primary cortical neuron, read-out: cell viability): 86%
- neuroprotection against OA-induced toxicity [3]: slightly higher neuroprotection profile than resveratrol

— paper PMC8958504 (Journal of Medicinal Chemistry, 2022)
